In test [1] the target is T1, Cholecystokinin receptor type A (Cavia porcellus, UniProt Q63931).
T1 sequence (Q63931 whole entry): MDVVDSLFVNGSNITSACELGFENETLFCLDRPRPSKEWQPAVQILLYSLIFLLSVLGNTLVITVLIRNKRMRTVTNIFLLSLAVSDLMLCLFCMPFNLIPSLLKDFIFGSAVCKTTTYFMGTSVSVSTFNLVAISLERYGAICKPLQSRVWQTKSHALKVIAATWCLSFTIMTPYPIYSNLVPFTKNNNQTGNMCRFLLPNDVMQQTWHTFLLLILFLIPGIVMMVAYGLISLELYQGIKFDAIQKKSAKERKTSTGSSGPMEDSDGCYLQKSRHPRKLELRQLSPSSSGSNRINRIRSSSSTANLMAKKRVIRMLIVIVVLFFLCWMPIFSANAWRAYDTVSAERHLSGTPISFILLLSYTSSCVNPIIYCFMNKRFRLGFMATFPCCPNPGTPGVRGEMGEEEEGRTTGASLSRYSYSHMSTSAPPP
The test can be described thus: Displacement of [125I]Bolton-Hunter-CCK-8 from guinea pig pancreas Cholecystokinin type A receptor. In general terms: Loss of bound radioactivity is the signal in a displacement assay; it reports binding, not function.

The species named for the next test is Cavia porcellus. The experiment in a line: Compound was evaluated for its ability to stimulate PI hydrolysis in guinea pig pancreas relative to maximal response elicited by CCK-8. In kind it is functional.

Usually pIC50 stands for −log10 of the IC50, conventionally taken in molar units.

Molecules are shown by their SMILES. pIC50: −log10 of the molar value.

For the compound `Cc1ccccc1NC(=O)NCCCC[C@@H](CNN[C@@H](CC(=O)O)C(=O)N(C)[C@@H](Cc1ccccc1)C(N)=O)NC(=O)[C@H](Cc1c[nH]c2ccccc12)NC(=O)OC(C)(C)C`, the negative-log IC50 (pIC50) in test [1] is 5.80. Moreover, the Max response in the test listed under Cavia porcellus was 0%.

Consider `CN(C(=O)[C@H](CC(=O)O)NNC[C@H](CCCCNC(=O)/C=C\c1ccc(O)cc1)NC(=O)[C@H](Cc1c[nH]c2ccccc12)NC(=O)OC(C)(C)C)[C@@H](Cc1ccccc1)C(N)=O`, for which, in test [1], the pIC50 is 6.60. The compound also came in with a Max response in the test filed under Cavia porcellus of 28%.

Compound `CC(C)(C)OC(=O)N[C@@H](Cc1c[nH]c2ccccc12)C(=O)N[C@@H](CCCCNC(=O)/C=C\c1ccc(O)cc1)C(=O)N[C@H](CNN[C@@H](Cc1ccccc1)C(N)=O)CC(=O)O` gave a pIC50 in test [1] of 6.89. The compound also showed a Max response in the test filed under Cavia porcellus of 0%.

On to `CC(C)(C)OC(=O)N[C@@H](Cc1c[nH]c2ccccc12)C(=O)N[C@@H](CCCCNC(=O)/C=C\c1ccc(O)cc1)CNN[C@@H](CC(=O)O)C(=O)N[C@@H](Cc1ccccc1)C(N)=O`, for which the negative-log IC50 (pIC50) in test [1] was 7.40. The Max response in the test listed under Cavia porcellus came out at 44%.

In the case of `Cc1ccccc1NC(=O)NCCCC[C@H](NC(=O)[C@H](Cc1c[nH]c2ccccc12)NC(=O)OC(C)(C)C)C(=O)N[C@H](CNN[C@@H](Cc1ccccc1)C(N)=O)CC(=O)O`, the negative logarithm of the IC50 (pIC50) in test [1] is 6.52. In addition, the Max response in the test filed under Cavia porcellus is reported as 6.3%.

Turning to `Cc1ccccc1NC(=O)NCCCC[C@H](NNC[C@H](Cc1c[nH]c2ccccc12)NC(=O)OC(C)(C)C)C(=O)N[C@@H](CC(=O)O)C(=O)N[C@@H](Cc1ccccc1)C(N)=O`, the negative logarithm of the IC50 (pIC50) in test [1] was 6.33. The Max response in the test filed under Cavia porcellus was 8.9%.

In turn, `CSCC[C@H](NC(=O)[C@H](Cc1c[nH]c2ccccc12)NC(=O)OC(C)(C)C)C(=O)N[C@@H](CC(=O)O)C(=O)N[C@@H](Cc1ccccc1)C(N)=O` yielded a Max response in the test listed under Cavia porcellus of 100%.

As for `CC(C)(C)OC(=O)N[C@H](CNN[C@@H](CCCCNC(=O)/C=C/c1ccc(O)cc1)C(=O)N[C@@H](CC(=O)O)C(=O)N[C@@H](Cc1ccccc1)C(N)=O)Cc1c[nH]c2ccccc12`, the pIC50 in test [1] is 6.03. Besides, the Max response in the test filed under Cavia porcellus is listed as 5.6%.

Take `CSCC[C@H](NC(=O)[C@H](Cc1ccc(OS(=O)(=O)O)cc1)NC(=O)[C@@H](N)CC(=O)O)C(=O)NCC(=O)N[C@@H](Cc1c[nH]c2ccccc12)C(=O)N[C@@H](CCSC)C(=O)N[C@@H](CC(=O)O)C(=O)N[C@@H](Cc1ccccc1)C(N)=O` [SINCALIDE]: the Max response in the test filed under Cavia porcellus is given as 100%.

Values taken from ChEMBL document CHEMBL1126470, “Toward developing peptidomimetics: Successful replacement of backbone amide bonds in tetrapeptide-based CCK-A receptor agonists” (Bioorg Med Chem Lett, 1993).
